Data as given in paper PMC8545111, “Molecular Basis of the Versatile Regulatory Mechanism of HtrA-Type Protease AlgW from Pseudomonas aeruginosa” (mBio, 2021).
Where “and” joins values, the source holds several entries; their conditions need not be identical. Identical values can stand only once.

What was measured:
AlgW [1] = molecular target: T1, AlgW (Pseudomonas aeruginosa, UniProt Q9HVX1); assay: Activation of 200 nM AlgW cleavage of 100 μM Abz-VLAG-pNA by a DDM gradient without agonist peptide, 25 mM Tris pH 7.5, 150 mM NaCl, 37°C, Hill-type fit.; type: biochemical; conditions: n = 3; read-out: Half-Maximal Activation concentration (μM), DDM gradient
T1 construct: soluble periplasmic region, residues 30-389, pET22b with PreScission-cleavable 6xHis; trimer
Protocol: FIG 2 Determination of enzyme apparent kinetic parameters of dual-signal-activated AlgW. (A) Activity assay of tripeptide or decapeptide-activated AlgW using the quenched fluorescent substrates Abz-VLAG-pNA, Abz-TVAW-pNA, and Abz-AAAA-pNA. All assays were placed in a buffer containing 25 mM Tris (pH 7.5) and 150 mM NaCl at 37°C for 1 h by adding 100 μM substrate, 200 nM AlgW, and 10 mM agonist peptides (tripeptide WVF or decapeptide SVRDELRWVF). (B) The apparent Michaelis-Menten parameters of AlgW cleavage quenched fluorescent substrates Abz-VLAG-pNA (100 μM) under the condition of peptide or lipid activation. (C) The activity assay of peptide or DDM activated AlgW using the saturated quenched fluorescent substrates Abz-VLAG-pNA. […] The final assay volume of all experiments was 100 μl, and the appearance of fluorescent products was monitored at 60-s intervals at fluorescence wavelengths of λex = 310 nm and λem = 420 nm. […] The Kcat for the AlgW trimer was calculated by Kcat = Vmax/(Etotal), (Etotal) = 200/3 nM trimers. […]
In the presence of a fixed amount of AlgW and saturated substrate, we measured the initial rates of AlgW at various concentrations of decapeptide or DDM (Fig. 2C). […]

AlgW [2] = assay: Muc- protease degradation assay; type: biochemical, Pseudomonas aeruginosa; conditions: MucB 130 μM, AlgW 25 μM; lipid-A 100 μM, DDM 400 μM or decapeptide 100 μM; 25 mM Tris-HCl pH 7.5, 150 mM NaCl, 37°C; 30 min; gel bands
Protocol: FIG 1 Degradation of MucA and MucB by AlgW in response to the peptides and lipid signals. (A and B) MucB/RseB (130 μM) was cleaved by AlgW/DegS (25 μM) in the presence of different agonist combinations, including lipid-A (100 μM), lipid-like detergent DDM (400 μM), decapeptide SVRDELRWVF (100 μM), and decapeptide combined with lipid-A or DDM. (C and D) MucB/RseB-protected MucA^peri/RseA^peri degradation by AlgW/DegS in the presence of different lengths of the activating peptides in a time-dependent manner. MucA^peri (125 μM), AlgW (25 μM), MucB (130 μM), activation peptides (tripeptide WVF or decapeptide SVRDELRWVF, 100 μM), and lipid-A (100 μM) were incubated at 37°C in a time-dependent manner in buffer (25 mM Tris-HCl pH 7.5, 150 mM NaCl). Similarly, RseA^peri (125 μM) was cleaved by DegS (25 μM) in the presences of RseB (130 μM), activation peptides (tripeptide YYF or decapeptide DNRDGNVYYF, 100 μM), and lipid-A (100 μM) at 37°C in a time-dependent manner in a phosphate buffer containing 50 mM NaHPO4 (pH 7.5), 200 mM NaCl, 10% glycerol, and 4 mM EDTA. (E and F) MucA^peri/RseA^peri was cleaved by AlgW/DegS in the presence of different agonist combinations in a time-dependent manner. MucA^peri (125 μM), AlgW (25 μM), activation decapeptide SVRDELRWVF (100 μM), and lipid-A (100 μM) were incubated at 37°C in a time-dependent manner in buffer. […]

AlgW [3] = assay: AlgW activation by agonist gradient (agonists versus velocity), saturated Abz-VLAG-pNA; type: biochemical, Pseudomonas aeruginosa; conditions: 100 μM Abz-VLAG-pNA, 200 nM AlgW
Protocol: FIG 2 Determination of enzyme apparent kinetic parameters of dual-signal-activated AlgW. (A) Activity assay of tripeptide or decapeptide-activated AlgW using the quenched fluorescent substrates Abz-VLAG-pNA, Abz-TVAW-pNA, and Abz-AAAA-pNA. All assays were placed in a buffer containing 25 mM Tris (pH 7.5) and 150 mM NaCl at 37°C for 1 h by adding 100 μM substrate, 200 nM AlgW, and 10 mM agonist peptides (tripeptide WVF or decapeptide SVRDELRWVF). (B) The apparent Michaelis-Menten parameters of AlgW cleavage quenched fluorescent substrates Abz-VLAG-pNA (100 μM) under the condition of peptide or lipid activation. (C) The activity assay of peptide or DDM activated AlgW using the saturated quenched fluorescent substrates Abz-VLAG-pNA. Under the gradient of peptide or DDM concentration,100 μM substrate and 200 nM AlgW were coincubated with or without 400 μM DDM or 10 mM agonist peptides in a buffer containing 25 mM Tris (pH 7.5) and 150 mM NaCl at 37°C for 1 h. The final assay volume of all experiments was 100 μl, and the appearance of fluorescent products was monitored at 60-s intervals at fluorescence wavelengths of λex = 310 nm and λem = 420 nm. […] The Kcat for the AlgW trimer was calculated by Kcat = Vmax/(Etotal), (Etotal) = 200/3 nM trimers. […]
For the enzyme mechanism of AlgW (30–389) and mutants, two internally quenched fluorescent peptide substrates incorporating the peptidase cleavage site of MucA/MucB, Abz-VLAG-pNA and Abz-TVAW-pNA, were designed and synthesized (GL Biochem Shanghai Ltd., China). In the intact peptide, the fluorescence of the anthraniloyl group is quenched by the P-nitroaniline (Abz is a fluorogenic group, and pNA is a quencher of fluorescence). This quenched fluorescence is liberated upon cleavage of peptide by 200 nM AlgW and mutants (200/3 nM for trimer), resulting in increased fluorescence that can then be monitored fluorometrically. […] The fluorescent degradation products were monitored at 60-s intervals at fluorescence wavelength—λex = 310 nm, λem = 420 nm ([41]). […]

T1 sequence (Q9HVX1 entry or part of it): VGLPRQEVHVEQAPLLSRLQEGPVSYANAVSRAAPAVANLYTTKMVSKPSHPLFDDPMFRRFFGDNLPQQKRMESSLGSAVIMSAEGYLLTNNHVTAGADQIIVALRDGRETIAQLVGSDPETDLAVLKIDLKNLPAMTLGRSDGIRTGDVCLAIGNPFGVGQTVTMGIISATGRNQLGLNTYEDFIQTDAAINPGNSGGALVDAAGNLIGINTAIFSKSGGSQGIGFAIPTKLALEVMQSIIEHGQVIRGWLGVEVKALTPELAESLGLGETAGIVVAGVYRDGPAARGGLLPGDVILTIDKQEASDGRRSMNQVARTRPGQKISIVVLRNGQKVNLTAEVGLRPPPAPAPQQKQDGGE

## CCCCCCCCCCCCO[C@@H]1O[C@H](CO)[C@@H](O[C@H]2O[C@H](CO)[C@@H](O)[C@H](O)[C@H]2O)[C@H](O)[C@H]1O [DDM, N-dodecyl-β-D-maltopyranoside]
AlgW [1]
  EC50: 92 ± 12.4 µM
AlgW [2]
  MucB cleavage by AlgW: could be activated
AlgW [3]; DDM gradient with 10 mM decapeptide (AlgW+Decapeptide), Tris pH 7.5, 37°C, 1 h
  Maximal cleavage activity: 717.8 ± 15.07 µM/min
AlgW [3]; gradient of the agonist alone
  Hill constants: 1.43 and 1.43 ± 0.22
AlgW [3]; gradient of the agonist alone, Tris pH 7.5, 37°C, Hill fit, three independent determinations, read-out: Half-Maximal Activation concentration
  EC50: 92 ± 12.4 µM
